One compound from BindingDB's records for patent US12202839 (University of Virginia Patent Foundation, 2025) can be followed below.

The structures appear in SMILES notation.

The assay has as its target Protein tyrosine phosphatase type IVA 3 (Homo sapiens, UniProt O75365). The experiment in a line: PTP4A3 Enzymatic Assay.

Chain of Protein tyrosine phosphatase type IVA 3 (O75365 whole entry): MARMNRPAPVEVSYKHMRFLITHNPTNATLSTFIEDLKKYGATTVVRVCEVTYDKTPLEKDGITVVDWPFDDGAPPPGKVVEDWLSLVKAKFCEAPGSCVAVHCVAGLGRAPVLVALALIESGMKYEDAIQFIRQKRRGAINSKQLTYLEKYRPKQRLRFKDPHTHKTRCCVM

What is called IC50 is the concentration at which inhibition is half-maximal. Low values mean higher potency, high ones lower potency. Turning to `O=C1NC(=O)c2sc(-c3ccccc3)cc2C1=O` [US12202839, Compound 15], the 50% inhibitory concentration (IC50) came out at 162 nM.
